Experimental data published in patent publication US20240254087A1, “SELECTIVE, PARTIAL, AND ARRESTIN-BIASED 5-HT2A AGONISTS WITH UTILITY IN VARIOUS DISORDERS” (Saint Joseph's University, priority 2021, published 2024).

Key:
[1] = tested on: humans; conditions: intranasal or sublingual routes; cited from earlier work
[2] = tested on: mice; assay: PCP-induced locomotor hyperactivity; type: in vivo, mouse
Procedure: (A). DOI, a hallucinogen and 5-HT2A agonist, was administered IP 10 min after SC administration of vehicle or test drug. A and then HTR activity was assessed for 30 minutes. *p<0.001, significant difference vs. vehicle (B). Vehicle or the NMDA receptor antagonist PCP (5 mg/kg) was injected IP 10 min after SC administration of vehicle or 25N-NB1-Nap (16), and then the mice were placed in the test chambers 10 min later for a 60-min assessment of locomotor activity. (C). […] Mice were treated with vehicle or M100907 (0.03 mg/kg SC) 10 min prior to vehicle or PCP (5 mg/kg IP): animals were placed in the test chambers 10 min after treatment with PCP. Animals were tested for 60 min. *p<0.01 vs. vehicle: ^#p<0.01 vs. PCP alone.
Male C57BL/6J mice (6-8 weeks old) from Jackson Labs (Bar Harbor, ME, USA) were used for the behavioral experiments. The mice were housed on a reversed light-dark cycle (lights on at 1900 h, off at 0700 h) in an AAAC-approved vivarium at the University of California San Diego. Mice were housed up to four per cage in a climate-controlled room and with food and water provided ad libitum except during behavioral testing. Testing was performed between 1000 and 1800 h (during the dark phase of the light-dark cycle). The studies were conducted in accordance with National Institutes Health (NIH) guidelines and were approved by the University of California San Diego Institutional Animal Care and Use Committee.
Edelfosine, DOI, R—(−)-DOI, and PCP were injected IP (5 mL/kg): 25N—NB and its derivatives were injected SC (5 mL/kg or 10 mL/kg): YM-254,890 was injected into the lateral ventricle (2 μL) over 1 min.
The mouse behavioral pattern monitor (BPM) was used to assess locomotor activity. Each mouse BPM chamber (San Diego Instruments, San Diego, CA, USA) is a transparent Plexiglas box with an opaque 30×60 cm floor, enclosed in a ventilated isolation box. The position of the mouse in x.y coordinates is recorded by a grid of 12×24 infrared photobeams located 1 cm above the floor. A second row of 16 photobeams (parallel to the long axis of the chamber, located 2.5 cm above the floor) is used to detect rearing behavior. Holepoking behavior is detected by 11 1.4-cm holes that are situated in the walls (3 holes in each long wall, 2 holes in each short wall) and the floor ([…]); each hole is equipped with an infrared photobeam. The status of each photobeam is sampled every 55 ms and recorded for offline analysis. Locomotor activity was quantified as distance traveled, which was analyzed in 20-min blocks using a three-way ANOVA, with pretreatment and treatment as between subject variables and time as a within-subject variable. Tukey's studentized range method was used for post hoc comparisons.

[3] = tested on: male C57BL/6J mice; assay: Tolerance: DOI-induced HTR after 5 days repeated treatment; type: in vivo, mouse; conditions: 5 days SC: 25N-N1-Nap 20, DOI 10, pimavanserin 1 mg/kg/day
Procedure: The mice were allowed to recover from the magnet implantation surgeries for at least 1 week prior to behavioral testing. HTR experiments were conducted in a well-lit room, and the mice were allowed to habituate to the room for at least 1 h prior to testing. Head twitches was assessed in a 12-cm diameter glass cylinder surrounded by a magnetometer coil. Coil voltage was low-pass filtered (2 kHz), amplified, and digitized (20-kHz sampling rate) using a Powerlab/8SP with LabChart v 7.3.2 (ADInstruments, Colorado Springs, CO, USA). […] HTR counts were analyzed using one-way ANOVAs. Dunnett's test was used for post hoc comparisons.

| Compound | Active dose in humans [1] | Effect on baseline locomotor activity ([2]; 3 mg/kg SC) | Effect on PCP-induced locomotor hyperactivity ([2]; PCP 5 mg/kg IP, 25N-N1-Nap 3 mg/kg SC, M100907 0.03 mg/kg SC) | Ability of DOI (1 mg/kg IP) to induce the HTR after repeated daily treatment [3] |
| --- | --- | --- | --- | --- |
| COc1cc([N+](=O)[O-])c(OC)cc1CCNCc1ccccc1OC [25N-NBOMe (4), [2-(2,5-dimethoxy-4-nitrophenyl)ethyl] [(2-methoxyphenyl)methyl]amine] | 0.3 to 0.8 mg |  |  |  |
| COc1cc([N+](=O)[O-])c(OC)cc1CCNCc1cccc2ccccc12 [25N-N-1-Nap (16), [2-(2,5-dimethoxy-4-nitrophenyl)ethyl][(naphthalen-1-yl)methyl]amine] |  | had no effect | antagonized | reduced significantly |
